Laboratory results: patent US4323576A, “Derivatives of pyrazole for use in therapy” (Morishita Pharmaceutical Co., Ltd., priority 1979, dated 1982)

Assays:
hypertriglyceridemia = assay: Pharmacological test against hypertriglyceridemia (fructose-induced); assay type: in vivo; conditions: serum, male SD rats, oral 3 times, 300 mg/kg as free carboxylic acid, after 48 hours, 10% fructose
Protocol: (i) Pharmacological test against hypertriglyceridemia:
The groups were made to be hypertriglyceridemia by giving an aqueous 10% by weight solution of fructose for 2 days, those of control group being given tap water. The administration of six kinds of the present derivatives and of nicotinic acid was as follows:
Each specimen of the present pyrazole derivatives and nicotinic acid was dissolved or dispersed into an aqueous 1% solution of carboxymethylcellulose (CMC) at a predetermined concentration, and the thus prepared solution or dispersion was orally administered 3 times in the volume of 0.5 ml/100 g body weight, that is, first dose just after the commencement of the present test, second dose after 24 hours of the first administration and third dose after 18 hours of the second administration. The dose of each compound was set so that each animal intaked 300 mg/kg of each compound as free carboxylic acid. The rats of control group were given the aqueous 1% solution of CMC only three times at the same intervals as the test groups. All the groups were fed with the same diet during the test period.
After 48 hours of the commencement of the test, blood sample was collected from each animal by amputation of the carotid artery, and serum was separated from the blood sample and frozen to be kept until lipid analysis.
Serum triglyceride was determined by Acetylacetone Method, and the reduction percentage of lipid was calculated by the following formula: [formula] wherein the amount is the average of the group.
Analysis for serum cholesterol:
The content of serum cholesterol was determined by an enzymatic method using cholesteroloxidase, and the reduction percentage of cholesterol was calculated by the following formula: [formula]

patients = conditions: administration to patients; cited from earlier work
hypercholesterolemia = assay: Pharmacological test against hypercholesterolemia (high cholesterol diet); assay type: in vivo; conditions: male SD rats, oral 200 mg/kg/day for 7 days; for Reduction Percentage, Cholesterol in beta-lipoprotein: heparin-calcium precipitation
Text: (ii) Pharmacological test against hypercholesterolemia:
Three groups of male SD rats each weighing ca. 150 g, each group consisting of five rats were used as the test animals and one group consisting of 10 rats was used as control. All animals were fed a high cholesterol diet consisted of 1% cholesterol, 0.2% sodium cholate, 5% olive oil and commercial diet up to total 100% for 7 days. The test compounds of the present invention and clofibrate, as a medicine for comparison, were respectively dissolved or dispersed in an aqueous 1% solution of CMC so that the volume of the solution or dispersion administered to each animal was 0.5 ml/100 g body weight/time, and the solution or dispersion was orally administered so that the amount of administration of each of the present pyrazole derivative or clofibrate was 200 mg/kg body weight/time. Actually, the administration was carried out once a day for 7 consecutive days. Water was taken ad lib. After 20 hours of fasting from the last administration, blood sample was taken by amputation of the carotid artery and the serum separated was frozen until the analysis of cholesterol shown as follows:
The content of serum cholesterol was determined by the above-mentioned method. The beta-lipoprotein-cholesterol was determined by "heparin-calcium precipitation method". The reduction percentages of cholesterol in serum and beta-lipoprotein were calculated in the same manner as above.

blood sugar-level = conditions: Land et al. 1975; cited from earlier work
serum lipid = conditions: Kupiecki et al. 1968; cited from earlier work

Row | Structure (SMILES) | Reduction Percentage, Cholesterol (hypertriglyceridemia) [%] | Reduction Percentage, Triglyceride (hypertriglyceridemia) [%] | Reduction Percentage, Cholesterol in serum (hypercholesterolemia) [%] | Reduction Percentage, Cholesterol in beta-lipoprotein (hypercholesterolemia) [%] | also measured
1 | O=C(O)c1cccnc1 [nicotinic acid, reference compound] | 16.4 | 24.1 | – | – | side effects (patients): causing flushing or eruptions on the face and skin
2 | CCCCCCCCCc1cc(C(=O)OCC)n[nH]1 [Ethyl 5-n-nonylpyrazole-3-carboxylate, ethyl 5-n-nonylpyrazole-3-carboxylate] | 29.5 | 63.1 | – | – | –
3 | CCCCCCCc1cc(C(=O)O)n[nH]1 [5-n-heptylpyrazole-3-carboxylic acid] | 12.5 | 40.6 | – | – | –
4 | CCCCCCCCCCCc1cc(C(=O)O)n[nH]1 [5-n-undecylpyrazole-3-carboxylic acid] | 40.0 | 69.1 | 22.8 | 20.1 | –
5 | CCOC(=O)C(C)(C)Oc1ccc(Cl)cc1 [Clofibrate, reference compound] | – | – | -3.5 | -2.0 | side effects (patients): causes the diseases in the bile duct system and is in danger of causing cancer
6 | Cc1cc(C(=O)O)n[nH]1 [5-Methylpyrazol-3-carboxylic acid] | – | – | – | – | clinical effect in treatment of hyperlipemia (blood sugar-level): uncertainty of the derivative's clinical effect in treatment of hyperlipemia; side effect on blood sugar level (blood sugar-level): causing the reduction of blood sugar-level; activity to reduce the level of serum lipid (serum lipid): activity to reduce the level of serum lipid
7 | CCCCCCCCCc1cc(C(=O)O)n[nH]1 [5-n-nonylpyrazole-3-carboxylic acid] | 12.2 | 66.5 | 11.1 | 0.6 | –
8 | CCCCCCCc1cc(C(=O)OCC)n[nH]1 [Ethyl 5-n-heptylpyrazole-3-carboxylate, ethyl 5-n-heptylpyrazole-3-carboxylate] | 2.1 | 41.1 | – | – | –
9 | CCCCCCCCCCCc1cc(C(=O)OCC)n[nH]1 [Ethyl 5-n-undecylpyrazole-3-carboxylate, ethyl 5-n-undecylpyrazole-3-carboxylate] | 53.1 | 83.7 | – | – | –
